The values below come from patent US9399072B2, “Methods of treatment of pancreatic cancer” (Abraxis BioScience, LLC, priority 2010, dated 2016).

The test system of data set [1] is locally advanced pancreatic cancer. The settings on record: 126 patients with locally advanced pancreatic cancer; cited from earlier work.
The test system of a further data set is pancreatic cancer. The settings on record: in vivo; cited from earlier work.
Data set [2] relates to gemcitabine-resistant pancreatic cancer. The settings on record: second-line, small studies; cited from earlier work.
Data set [3] in a line: Phase I study of Nab-paclitaxel with vandetanib: MTD, DLT, adverse events. It counts as in vivo, human. The source says: Patients were randomized to one of two cohorts. […] A 3+3 design was used.

The structures appear in SMILES notation.

For `O=c1[nH]cc(F)c(=O)[nH]1` [5-FU, 5-fluororuracil], in data set [1], the median overall survival was 4.2 months and the “median time to disease progression” value is on record as 0.9 months.
With `Nc1ccn([C@@H]2O[C@H](CO)[C@@H](O)C2(F)F)c(=O)n1` [gemcitabine], in data set [1], the median overall survival was 5.7 months and the “median time to disease progression” value is given as 2.1 months. Further, in the data set with pancreatic cancer, the median overall survival is listed as 6.0 months and the “median progression free survival” value is listed as 3.5 months.
In the case of `CC(=O)O[C@H]1C(=O)[C@@]2(C)[C@H]([C@H](OC(=O)c3ccccc3)[C@]3(O)C[C@H](OC(=O)[C@H](O)[C@@H](NC(=O)c4ccccc4)c4ccccc4)C(C)=C1C3(C)C)[C@]1(OC(C)=O)CO[C@@H]1C[C@@H]2O` [paclitaxel], in data set [2], the median overall survival is recorded as 17.5 weeks and the response rate is given as 6%.
On to `COc1cc2c(Nc3ccc(Br)cc3F)ncnc2cc1OCC1CCN(C)CC1` [vandetanib], for which the MTD in data set [3] (cohort A: daily, combined with 100 mg/m^2 Nab-paclitaxel weekly for three out of four weeks) stood at 300 mg; in data set [3] (cohort B: daily, in combination with 260 mg/m^2 Nab-paclitaxel every three weeks), 300 mg.
